Measurements taken from patent US9023789B2, “Amylin analogs and pharmaceutical compositions thereof” (Novo Nordisk A/S, priority 2012, dated 2015).
Numbered stars: 1 amine (or outer) side, 2 acyl side, 3 side chain; on linkers, the order of the positions; unused ones are H or OH. Bridge positions count the residues as written; N and C are the ends. Side chains are listed from the residue outwards. Peptide text beside a SMILES is read from it. * marks the point of attachment. C20 diacid = O=C(O)CCCCCCCCCCCCCCCCCCC(=O)*; γGlu = O=C(O)[C@H](CCC(=O)[*:2])N[*:1]

Legend:
[1] = target: T1, human amylin 3(a) receptor (human calcitonin receptor + RAMP-3) in BHK570 cells (Homo sapiens, UniProt O60896+P30988); test: ASSAY (II)a functional assay, human amylin receptor (CRE luciferase); assay type: cell-based
T1 construct: expressed in transfected cells
Method in brief: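 Functional agonism was measured by CRE-luciferase reporter luminescence in BHK cells bearing calcitonin receptor, or calcitonin receptor plus RAMP-3 as the amylin 3(a) receptor. Stimulation lasted 3 hours at 37° C.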

[2] = ASSAY (III) ThT fibrillation assay for physical stability; assay type: physicochemical
Method in brief: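 Physical stability scored by ThT fluorescence (444 nm excitation, 485 nm emission) tracked every 20 min during 37 °C incubation with 960 rpm shaking, ThT at 1 μM final. Values are replicate means with SD at chosen times; HPLC against pramlintide standard gives initial and post-assay soluble concentrations.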

[3] = target: T2, human amylin receptor (membranes from Amylin 3(a)/CRE-luc cells) (Homo sapiens, UniProt O60896+P30988); test: ASSAY (V) binding to the human amylin receptor (SPA, 125I-rat amylin);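 further: competition binding of cell membranes (35 ng/µL) mixed with SPA beads in 384-well plates at 40 µL total volume, read by scintillation counting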
T2 construct: expressed in transfected cells
T2 sequence (P30988 25-474): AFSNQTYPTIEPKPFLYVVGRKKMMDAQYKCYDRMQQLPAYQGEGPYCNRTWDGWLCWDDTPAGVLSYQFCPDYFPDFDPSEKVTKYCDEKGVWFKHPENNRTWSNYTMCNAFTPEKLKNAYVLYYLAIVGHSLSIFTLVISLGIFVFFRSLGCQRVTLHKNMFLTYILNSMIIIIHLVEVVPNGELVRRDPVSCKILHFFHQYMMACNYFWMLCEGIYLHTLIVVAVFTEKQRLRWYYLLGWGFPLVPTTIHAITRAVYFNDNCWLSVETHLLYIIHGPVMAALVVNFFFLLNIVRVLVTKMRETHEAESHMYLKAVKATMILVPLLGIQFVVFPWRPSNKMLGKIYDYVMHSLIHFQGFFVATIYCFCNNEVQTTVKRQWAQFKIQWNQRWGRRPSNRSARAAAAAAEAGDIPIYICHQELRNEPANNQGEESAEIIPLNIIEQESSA
T2 sequence (O60896 24-148 partner): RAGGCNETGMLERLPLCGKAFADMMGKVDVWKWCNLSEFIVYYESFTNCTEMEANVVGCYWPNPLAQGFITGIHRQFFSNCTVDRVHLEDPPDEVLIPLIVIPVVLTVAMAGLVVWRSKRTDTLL

[4] = hCTR funct. EC50 divided by hAmylin-R funct. EC50
[5] = hCTR funct. EC50 over hAmylin-R funct. EC50
[6] = human functional selectivity: hCTR funct. EC50 / hAmylin-R funct. EC50
[7] = Table 5, selectivity, hCTR bind IC50 / hAmylin-R bind IC50
[8] = Table 5a, selectivity, hCTR bind IC50 / hAmylin-R bind IC50
[9] = Table 5b, selectivity, hCTR bind IC50 / hAmylin-R bind IC50
[10] = Table 5c, selectivity, hCTR bind IC50 / hAmylin-R bind IC50
[11] = Table 7, human binding selectivity, included for comparison
[12] = Table 7a (preferred compounds), human binding selectivity, included for comparison
[13] = ratio of human calcitonin receptor binding IC50 to human amylin receptor binding IC50

Row | Ratio hCT/hAmylin funct. [1, 4] | Ratio hCT/hAmylin funct. [1, 5] | Ratio hCT/hAmylin funct. [1, 6] | ThT pH 4.0 lag time (h) [2] [h] | Ratio hCT/hAmylin binding [3, 7] | Ratio hCT/hAmylin binding [3, 8] | Ratio hCT/hAmylin binding [3, 9] | Ratio hCT/hAmylin binding [3, 10] | Ratio hCT/hAmylin binding [3, 11] | Ratio hCT/hAmylin binding [3, 12] | Ratio hCT/hAmylin binding [3, 13] | EC50 ([1]; human amylin receptor functional potency, assay (II), read-out: hAmylin-R funct. EC50) [nM] | IC50 ([3]; Table 4, read-out: hAmylin-R bind IC50) [nM] | SMILES
1 | 8.5 | 8.5 | 8.5 | 45 | 46.5 | 46.5 | 46.5 | 46.5 | 46.5 | 46.5 | 46.5 | – | – | CC[C@H](C)[C@H](NC(=O)[C@H](C)NC(=O)CNC(=O)[C@H](Cc1ccccc1)NC(=O)[C@H](CC(N)=O)NC(=O)[C@@H]1CCCN1C(=O)[C@H](CO)NC(=O)[C@H](CO)NC(=O)[C@H](Cc1c[nH]cn1)NC(=O)[C@H](CCCNC(=N)N)NC(=O)[C@H](CC(C)C)NC(=O)[C@H](Cc1ccccc1)NC(=O)[C@H](CCC(=O)O)NC(=O)[C@H](C)NC(=O)[C@H](CC(C)C)NC(=O)[C@H](CCCNC(=N)N)NC(=O)[C@H](CCC(N)=O)NC(=O)[C@@H](NC(=O)[C@H](C)NC(=O)[C@@H]1CSSC[C@H](NC(=O)[C@@H](N)CCCCNC(=O)CC[C@H](NC(=O)CC[C@H](NC(=O)CCCCCCCCCCCCCCCCCCC(=O)O)C(=O)O)C(=O)O)C(=O)N[C@@H](CC(N)=O)C(=O)N[C@@H]([C@@H](C)O)C(=O)N[C@@H](C)C(=O)N[C@@H]([C@@H](C)O)C(=O)N1)[C@@H](C)O)C(=O)N1CCC[C@H]1C(=O)N[C@@H](CO)C(=O)N[C@@H](CO)C(=O)N[C@H](C(=O)N[C@@H](CC(N)=O)C(=O)N[C@H](C(=O)NCC(=O)N[C@@H](CCCNC(=N)N)C(=O)N[C@@H](CC(N)=O)C(=O)N[C@H](C(=O)N[C@@H](Cc1ccc(O)cc1)C(N)=O)[C@@H](C)O)C(C)C)[C@@H](C)O [Example 88] (H-K([γGlu-γGlu-C20 diacid])CNTATCATQRLAEFLRHSSPNFGAIPSSTNVGRNTY-NH2; disulfide 2-7)
2 | 27.8 | 27.8 | 27.8 | 43 | 28.0 | 28.0 | 28.0 | 28.0 | 28.0 | 28.0 | 28.0 | 0.404 | 1.16 | CC[C@H](C)[C@H](NC(=O)[C@H](C)NC(=O)CNC(=O)[C@H](Cc1ccccc1)NC(=O)[C@H](CC(N)=O)NC(=O)[C@@H]1CCCN1C(=O)[C@H](CO)NC(=O)[C@H](CO)NC(=O)[C@H](Cc1c[nH]cn1)NC(=O)[C@H](CCCNC(=N)N)NC(=O)[C@H](CC(C)C)NC(=O)[C@H](Cc1ccccc1)NC(=O)[C@H](CCC(=O)O)NC(=O)[C@H](C)NC(=O)[C@H](CC(C)C)NC(=O)[C@H](CCCNC(=N)N)NC(=O)[C@H](CCC(N)=O)NC(=O)[C@@H](NC(=O)[C@H](C)NC(=O)[C@@H]1CSSC[C@H](NC(=O)[C@@H](N)CCCCNC(=O)CC[C@H](NC(=O)CC[C@H](NC(=O)CCCCCCCCCCCCCCCCCCC(=O)O)C(=O)O)C(=O)O)C(=O)N[C@@H](CC(N)=O)C(=O)N[C@@H]([C@@H](C)O)C(=O)N[C@@H](C)C(=O)N[C@@H]([C@@H](C)O)C(=O)N1)[C@@H](C)O)C(=O)N1CCC[C@H]1C(=O)N[C@@H](CO)C(=O)N[C@@H](CO)C(=O)N[C@H](C(=O)N[C@@H](CC(N)=O)C(=O)N[C@H](C(=O)NCC(=O)N[C@@H](CO)C(=O)N[C@@H](CCCNC(=N)N)C(=O)N[C@H](C(=O)N[C@@H](Cc1ccc(O)cc1)C(N)=O)[C@@H](C)O)C(C)C)[C@@H](C)O [Example 89] (H-K([γGlu-γGlu-C20 diacid])CNTATCATQRLAEFLRHSSPNFGAIPSSTNVGSRTY-NH2; disulfide 2-7 (inferred); N-terminus assumed)
